According to patent publication US20060264330A1, “Agricultural agents containing copolymers” (priority 2003, published 2006):
Where a name gives a salt, the structure may show the parent alone.

Key:
Format in all cases: in vivo
[1] = system: Solanum nigrum L.; assay: 14C-glyphosate foliar uptake by scintillation measurement; conditions: 14C-glyphosate-IPA 20 mM (aq), adjuvant 0.25%
Procedure: Determination of the foliar uptake of glyphosate with addition of the copolymers described
^14C-Glyphosate Experiment
^14C-glyphosate-IPA at a concentration of 20 mM (aq) (corresponds to 665 g of ae/ha at a spray volume of 200 l/ha) was treated with 0.25% of the copolymers described. Using this mixture, the foliar uptake into the genus Solanum nigrum L. was determined by means of scintillation measurement. The effect of the copolymer on the uptake of the active ingredient via the leaf surface (foliar uptake) is described in the table which follows: […]

[2] = system: common chickweed (STEME); assay: Nicosulforon experiment, plant fresh weight; conditions: nicosulforon 200 g of ai/ha, adjuvant 0.25%, 14 DAT; untreated = 100
Procedure: (§1) Nicosulforon was applied as an aqueous solution with a concentration of 200 g of ai/ha. The adjuvants were added to the application solution at a concentration of 0.25%. The mixture was applied to plants of the genus velvetleaf (ABUTH), common lambsquarter (CHEAL) and common chickweed (STEME). The efficacy was determined by weighing the plant weight (fresh weight in g) 14 days post-application (14 DAT).

[3] = system: common lambsquarter (CHEAL); assay: Nicosulforon experiment, plant fresh weight; conditions: nicosulforon 200 g of ai/ha, adjuvant 0.25%, 14 DAT; untreated = 100
Procedure: as §1

[4] = system: velvetleaf (ABUTH); assay: Nicosulforon experiment, plant fresh weight; conditions: nicosulforon 200 g of ai/ha, adjuvant 0.25%, 14 DAT; untreated = 100
Procedure: as §1

[5] = system: common lambsquarters (CHEAL); assay: Bentazone experiment, photosynthetic activity by fluorescence measurement (Fpc); conditions: sodium salt of bentazone 60 g ai/ha, adjuvant 0.25%, 1 DAT; Fpc drops from 100 to 0 with destruction of the plant
Procedure: (§2) The sodium salt of bentazone was applied as an aqueous solution with a concentration of 480 g/l. The application rate was 60 g of ai/ha. The mixture was applied to plants of the genus common lambsquarters (CHEAL) and wild buckwheat (POLCO). The adjuvants were added to the application solution at a concentration of 0.25%. The activity was determined by means of fluorescence measurement, where the factor Fpc is a measure of the photosynthetic activity. The destruction of the plant is associated with a drop in the Fpc value, starting from 100, down to 0.

[6] = system: wild buckwheat (POLCO); assay: as above; conditions: sodium salt of bentazone 60 g ai/ha, adjuvant 0.25%, 1 DAT; Fpc drops from 100 to 0 with destruction of the plant
Procedure: as §2

Question: Which “Uptake (% of the amount of glyphosate applied)” value [1] does the source give for `O=C(O)CNCP(=O)(O)O` [glyphosate, N-phosphonomethylglycine] here?
Answer: Its value is 48 % of the amount of glyphosate applied.

Question: Which results are given for `COc1cc(OC)nc(NC(=O)NS(=O)(=O)c2ncccc2C(=O)N(C)C)n1` [nicosulforon]?
Answer: FW (fresh weight) STEME [2]: 63 g; FW (fresh weight) CHEAL [3]: 88 g; FW (fresh weight) ABUTH [4]: 90 g

Question: `CC(C)N1C(=O)c2ccccc2NS1(=O)=O` [sodium salt of bentazone] was tested. Which “Fluorescence Fpc CHEAL” value [5] did it give?
Answer: Its value is 56.

Question: What about the “Florescence Fpc POLCO” value [6] of the same compound?
Answer: Its value is 46.
